Measurements from the supplement of paper PMC13207355.

Assays:
Conditions in all cases: exposure time: 72 h
[1] = test system: E57 (patient-derived glioblastoma stem cells of mesenchymal subtype); assay: phenotypic distance (Euclidean, principal components) from DMSO controls (arbitrary units); higher = stronger morphological change
[2] = test system: E21 (patient-derived glioblastoma stem cells of mesenchymal subtype); assay: as above
[3] = test system: E13 (patient-derived glioblastoma stem cells of classical subtype); assay: as above
[4] = test system: E31 (patient-derived glioblastoma stem cells of proneural subtype); assay: as above
[5] = test system: E28 (patient-derived glioblastoma stem cells of classical subtype); assay: as above
[6] = test system: E34 (patient-derived glioblastoma stem cells of proneural subtype); assay: as above
[7] = test system: FT3469 (normal neural stem cell line); assay: as above
[8] = test system: E57; assay: surviving fraction (nuclei count normalised to DMSO); higher = more cells surviving (less toxic)
[9] = test system: E21; assay: as above
[10] = test system: E13; assay: as above
[11] = test system: E31; assay: as above
[12] = test system: E28; assay: as above
[13] = test system: E34; assay: as above
[14] = test system: FT3469; assay: as above
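For phenotypic distance (Euclidean, principal components) from DMSO controls in this document: cell Painting imaging in 384-well plates, CellProfiler features reduced to at least 20 principal components, Euclidean distance versus same-plate DMSO vehicle wells (0.1% v/v), median over six images per well.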
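For surviving fraction (nuclei count normalised to DMSO) in this document: nuclei counted by high-content imaging of Hoechst-stained cells in laminin-coated 384-well plates, relative to 0.1% DMSO vehicle wells, with staurosporine as cell-death control.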

Nc1nc(Cl)nc2c1ncn2[C@@H]1O[C@H](CO)[C@@H](O)[C@@H]1F [Clofarabine]
Conditions | phenotypic distance | surviving fraction
[1], 4.1 nM | 0.635 | –
[1], 12.3 nM | 1.15 | –
[1], 37 nM | 2.09 | –
[1], 111.1 nM | 5.48 | –
[1], 333.3 nM | 5.92 | –
[1], 1000 nM | 6.82 | –
[1], 3000 nM | 6.53 | –
[2], 4.1 nM | 0.844 | –
[2], 12.3 nM | 1.11 | –
[2], 37 nM | 1.36 | –
[2], 111.1 nM | 2.15 | –
[2], 333.3 nM | 4.37 | –
[2], 1000 nM | 4.92 | –
[2], 3000 nM | 4.35 | –
[3], 4.1 nM | 0.623 | –
[3], 12.3 nM | 2.78 | –
[3], 37 nM | 0.684 | –
[3], 111.1 nM | 0.632 | –
[3], 333.3 nM | 0.616 | –
[3], 1000 nM | 1.66 | –
[3], 3000 nM | 5.91 | –
[4], 4.1 nM | 1.08 | –
[4], 12.3 nM | 1.33 | –
[4], 37 nM | 1.67 | –
[4], 111.1 nM | 2.85 | –
[4], 333.3 nM | 3.28 | –
[4], 1000 nM | 2.52 | –
[4], 3000 nM | 2.66 | –
[5], 4.1 nM | 1.24 | –
[5], 12.3 nM | 1.42 | –
[5], 37 nM | 1.73 | –
[5], 111.1 nM | 2.31 | –
[5], 333.3 nM | 3.06 | –
[5], 1000 nM | 3.17 | –
[5], 3000 nM | 3.21 | –
[6], 4.1 nM | 0.795 | –
[6], 12.3 nM | 0.848 | –
[6], 37 nM | 0.943 | –
[6], 111.1 nM | 2.17 | –
[6], 333.3 nM | 3.94 | –
[6], 1000 nM | 3.25 | –
[6], 3000 nM | 3.42 | –
[7], 4.1 nM | 0.724 | –
[7], 12.3 nM | 0.807 | –
[7], 37 nM | 0.917 | –
[7], 111.1 nM | 1.95 | –
[7], 333.3 nM | 2.04 | –
[7], 1000 nM | 1.6 | –
[7], 3000 nM | 2.19 | –
[8], 4.1 nM | – | 0.939
[8], 12.3 nM | – | 0.847
[8], 37 nM | – | 0.741
[8], 111.1 nM | – | 0.402
[8], 333.3 nM | – | 0.186
[8], 1000 nM | – | 0.168
[8], 3000 nM | – | 0.165
[9], 4.1 nM | – | 0.962
[9], 12.3 nM | – | 0.885
[9], 37 nM | – | 0.825
[9], 111.1 nM | – | 0.771
[9], 333.3 nM | – | 0.343
[9], 1000 nM | – | 0.118
[9], 3000 nM | – | 0.116
[10], 4.1 nM | – | 0.852
[10], 12.3 nM | – | 0.979
[10], 37 nM | – | 0.86
[10], 111.1 nM | – | 0.941
[10], 333.3 nM | – | 0.913
[10], 1000 nM | – | 0.789
[10], 3000 nM | – | 0.318
[11], 4.1 nM | – | 0.754
[11], 12.3 nM | – | 0.892
[11], 37 nM | – | 0.64
[11], 111.1 nM | – | 0.205
[11], 333.3 nM | – | 0.142
[11], 1000 nM | – | 0.236
[11], 3000 nM | – | 0.206
[12], 4.1 nM | – | 0.864
[12], 12.3 nM | – | 0.907
[12], 37 nM | – | 0.515
[12], 111.1 nM | – | 0.559
[12], 333.3 nM | – | 0.341
[12], 1000 nM | – | 0.366
[12], 3000 nM | – | 0.3
[13], 4.1 nM | – | 0.858
[13], 12.3 nM | – | 1.04
[13], 37 nM | – | 0.894
[13], 111.1 nM | – | 0.777
[13], 333.3 nM | – | 0.558
[13], 1000 nM | – | 0.495
[13], 3000 nM | – | 0.541
[14], 4.1 nM | – | 0.827
[14], 12.3 nM | – | 0.915
[14], 37 nM | – | 0.875
[14], 111.1 nM | – | 0.79
[14], 333.3 nM | – | 0.702
[14], 1000 nM | – | 0.497
[14], 3000 nM | – | 0.428
